Laboratory results from article PMC5787485, “HDAC inhibitor PAC-320 induces G2/M cell cycle arrest and apoptosis in human prostate cancer” (Oncotarget, 2017).

Assays:
Assay in all cases: fluorescent HDAC activity assay (BIOMOL kit) with purified HDAC
Type in all cases: biochemical
HDAC4 = HDAC4 (Homo sapiens, UniProt P56524)
HDAC6 = biological target: T1, HDAC6 (Homo sapiens, UniProt Q9UBN7)
T1 sequence (Q9UBN7 1-1215): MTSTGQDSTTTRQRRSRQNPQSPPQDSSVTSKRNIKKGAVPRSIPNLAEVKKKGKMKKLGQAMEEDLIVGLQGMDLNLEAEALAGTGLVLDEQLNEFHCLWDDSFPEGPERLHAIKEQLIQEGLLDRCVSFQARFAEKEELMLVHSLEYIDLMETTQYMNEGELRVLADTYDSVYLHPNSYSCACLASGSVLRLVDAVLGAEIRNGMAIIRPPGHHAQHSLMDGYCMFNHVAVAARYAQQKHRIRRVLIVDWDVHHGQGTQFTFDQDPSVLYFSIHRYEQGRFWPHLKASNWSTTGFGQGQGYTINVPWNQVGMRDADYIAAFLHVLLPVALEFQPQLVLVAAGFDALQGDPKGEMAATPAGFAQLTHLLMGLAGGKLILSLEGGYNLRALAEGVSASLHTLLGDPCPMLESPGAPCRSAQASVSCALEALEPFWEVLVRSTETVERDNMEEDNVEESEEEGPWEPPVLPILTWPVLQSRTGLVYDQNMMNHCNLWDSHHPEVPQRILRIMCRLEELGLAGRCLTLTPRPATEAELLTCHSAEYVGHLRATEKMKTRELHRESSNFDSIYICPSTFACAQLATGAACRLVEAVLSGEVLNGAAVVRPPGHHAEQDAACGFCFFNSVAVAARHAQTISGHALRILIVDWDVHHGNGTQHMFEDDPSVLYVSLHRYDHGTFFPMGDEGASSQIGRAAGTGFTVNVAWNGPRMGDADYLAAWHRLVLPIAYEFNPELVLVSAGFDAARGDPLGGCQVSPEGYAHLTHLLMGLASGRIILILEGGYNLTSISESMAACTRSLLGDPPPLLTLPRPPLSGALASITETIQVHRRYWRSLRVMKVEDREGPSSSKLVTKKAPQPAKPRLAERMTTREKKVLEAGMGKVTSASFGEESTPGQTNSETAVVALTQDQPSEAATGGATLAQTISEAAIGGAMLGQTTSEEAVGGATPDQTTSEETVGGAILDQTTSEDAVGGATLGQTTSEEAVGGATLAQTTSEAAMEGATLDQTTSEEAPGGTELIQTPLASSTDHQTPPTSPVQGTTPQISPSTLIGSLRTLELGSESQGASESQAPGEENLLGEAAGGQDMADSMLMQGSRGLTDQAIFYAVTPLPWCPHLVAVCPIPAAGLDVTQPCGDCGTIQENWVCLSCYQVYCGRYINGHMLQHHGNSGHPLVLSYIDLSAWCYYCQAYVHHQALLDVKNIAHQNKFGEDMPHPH

HDAC5 = HDAC5 (Homo sapiens, UniProt Q9UQL6)
HDAC2 = HDAC2 (Homo sapiens, UniProt Q92769)
HDAC1 = HDAC1 (Homo sapiens, UniProt Q13547)
HDAC 3 = biological target: T2, HDAC 3 (Homo sapiens, UniProt O15379)
T2 construct: gene HDAC3

Measured: IC50

T2 sequence (O15379 whole entry): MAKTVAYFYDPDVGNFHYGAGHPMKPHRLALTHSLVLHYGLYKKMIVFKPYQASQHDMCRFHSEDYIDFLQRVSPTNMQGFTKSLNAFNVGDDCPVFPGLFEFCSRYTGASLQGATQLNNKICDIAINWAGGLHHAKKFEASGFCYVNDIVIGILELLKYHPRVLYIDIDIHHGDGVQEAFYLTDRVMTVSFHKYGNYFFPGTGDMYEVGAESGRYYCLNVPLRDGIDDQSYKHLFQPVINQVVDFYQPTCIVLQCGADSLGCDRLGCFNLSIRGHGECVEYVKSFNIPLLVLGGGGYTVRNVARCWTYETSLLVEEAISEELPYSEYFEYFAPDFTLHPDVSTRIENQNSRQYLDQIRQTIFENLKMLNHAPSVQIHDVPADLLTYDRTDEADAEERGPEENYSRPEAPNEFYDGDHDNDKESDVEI
HDAC5, sequence (Q9UQL6 whole entry): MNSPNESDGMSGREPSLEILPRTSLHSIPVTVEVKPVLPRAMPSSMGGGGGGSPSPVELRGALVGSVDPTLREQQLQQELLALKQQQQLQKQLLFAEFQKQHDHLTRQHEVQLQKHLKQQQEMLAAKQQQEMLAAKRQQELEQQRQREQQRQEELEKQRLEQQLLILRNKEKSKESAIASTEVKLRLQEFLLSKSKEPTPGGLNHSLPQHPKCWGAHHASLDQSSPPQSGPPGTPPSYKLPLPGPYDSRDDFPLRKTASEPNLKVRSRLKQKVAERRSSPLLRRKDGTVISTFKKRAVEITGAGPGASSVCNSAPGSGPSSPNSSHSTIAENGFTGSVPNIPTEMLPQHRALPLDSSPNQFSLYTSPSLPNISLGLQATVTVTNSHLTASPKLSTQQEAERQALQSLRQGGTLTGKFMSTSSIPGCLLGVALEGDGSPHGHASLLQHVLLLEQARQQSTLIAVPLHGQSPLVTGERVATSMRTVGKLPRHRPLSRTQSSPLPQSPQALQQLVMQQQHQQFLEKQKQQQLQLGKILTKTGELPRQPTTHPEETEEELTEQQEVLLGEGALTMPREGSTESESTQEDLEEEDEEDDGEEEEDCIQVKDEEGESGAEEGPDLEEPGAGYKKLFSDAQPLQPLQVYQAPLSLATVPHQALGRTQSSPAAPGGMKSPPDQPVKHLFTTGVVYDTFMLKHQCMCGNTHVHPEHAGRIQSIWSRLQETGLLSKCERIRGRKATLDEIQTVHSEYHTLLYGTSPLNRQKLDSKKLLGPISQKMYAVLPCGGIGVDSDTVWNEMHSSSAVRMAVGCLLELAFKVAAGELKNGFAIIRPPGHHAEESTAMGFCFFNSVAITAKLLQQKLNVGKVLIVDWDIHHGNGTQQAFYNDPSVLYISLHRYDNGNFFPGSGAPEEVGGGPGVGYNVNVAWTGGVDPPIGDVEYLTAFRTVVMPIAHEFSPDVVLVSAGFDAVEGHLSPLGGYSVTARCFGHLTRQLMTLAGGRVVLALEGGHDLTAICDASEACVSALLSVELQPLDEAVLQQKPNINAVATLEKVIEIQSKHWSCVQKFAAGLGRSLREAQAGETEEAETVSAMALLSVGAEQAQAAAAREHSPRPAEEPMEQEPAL
HDAC2, sequence (Q92769 whole entry): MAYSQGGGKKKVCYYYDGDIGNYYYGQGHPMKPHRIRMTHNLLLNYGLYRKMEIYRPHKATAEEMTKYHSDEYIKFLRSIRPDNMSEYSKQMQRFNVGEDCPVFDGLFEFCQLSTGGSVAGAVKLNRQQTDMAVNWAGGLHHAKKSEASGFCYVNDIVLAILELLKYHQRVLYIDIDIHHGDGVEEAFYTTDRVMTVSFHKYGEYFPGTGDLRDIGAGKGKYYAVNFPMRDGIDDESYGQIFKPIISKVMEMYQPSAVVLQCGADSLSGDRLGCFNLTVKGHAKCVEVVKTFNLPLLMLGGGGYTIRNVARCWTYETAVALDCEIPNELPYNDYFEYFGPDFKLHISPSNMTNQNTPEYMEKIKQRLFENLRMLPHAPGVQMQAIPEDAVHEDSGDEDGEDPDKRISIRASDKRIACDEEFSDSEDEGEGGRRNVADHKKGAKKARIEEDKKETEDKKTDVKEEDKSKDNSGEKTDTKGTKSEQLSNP
HDAC4, sequence (P56524 whole entry): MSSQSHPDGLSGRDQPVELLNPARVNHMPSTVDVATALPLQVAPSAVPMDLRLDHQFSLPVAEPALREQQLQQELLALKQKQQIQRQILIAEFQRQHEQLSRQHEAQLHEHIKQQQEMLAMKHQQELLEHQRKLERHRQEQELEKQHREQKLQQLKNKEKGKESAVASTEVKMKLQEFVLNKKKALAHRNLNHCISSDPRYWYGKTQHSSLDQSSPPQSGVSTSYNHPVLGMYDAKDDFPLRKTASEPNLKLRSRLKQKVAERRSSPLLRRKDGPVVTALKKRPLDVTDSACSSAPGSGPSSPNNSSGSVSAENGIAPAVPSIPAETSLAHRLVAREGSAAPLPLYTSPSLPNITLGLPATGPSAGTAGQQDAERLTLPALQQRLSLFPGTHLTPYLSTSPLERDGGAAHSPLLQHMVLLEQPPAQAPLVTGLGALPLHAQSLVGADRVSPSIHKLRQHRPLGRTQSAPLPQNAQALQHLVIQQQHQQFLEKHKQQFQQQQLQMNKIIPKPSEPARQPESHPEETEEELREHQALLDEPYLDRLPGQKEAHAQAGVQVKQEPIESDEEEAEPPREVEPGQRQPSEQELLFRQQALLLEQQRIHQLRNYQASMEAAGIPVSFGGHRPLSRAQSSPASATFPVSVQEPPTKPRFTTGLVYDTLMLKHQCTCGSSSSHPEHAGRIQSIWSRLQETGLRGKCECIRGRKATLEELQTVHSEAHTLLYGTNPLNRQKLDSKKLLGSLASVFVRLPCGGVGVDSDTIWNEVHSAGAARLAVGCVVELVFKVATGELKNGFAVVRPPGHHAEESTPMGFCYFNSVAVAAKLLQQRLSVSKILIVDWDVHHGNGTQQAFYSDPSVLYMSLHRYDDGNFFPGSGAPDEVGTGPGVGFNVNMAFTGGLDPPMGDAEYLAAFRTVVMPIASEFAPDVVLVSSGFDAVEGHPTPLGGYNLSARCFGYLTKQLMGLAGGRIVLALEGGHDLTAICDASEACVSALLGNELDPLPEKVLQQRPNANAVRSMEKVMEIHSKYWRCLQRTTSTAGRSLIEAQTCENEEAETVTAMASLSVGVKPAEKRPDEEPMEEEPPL
HDAC1, sequence (Q13547 whole entry): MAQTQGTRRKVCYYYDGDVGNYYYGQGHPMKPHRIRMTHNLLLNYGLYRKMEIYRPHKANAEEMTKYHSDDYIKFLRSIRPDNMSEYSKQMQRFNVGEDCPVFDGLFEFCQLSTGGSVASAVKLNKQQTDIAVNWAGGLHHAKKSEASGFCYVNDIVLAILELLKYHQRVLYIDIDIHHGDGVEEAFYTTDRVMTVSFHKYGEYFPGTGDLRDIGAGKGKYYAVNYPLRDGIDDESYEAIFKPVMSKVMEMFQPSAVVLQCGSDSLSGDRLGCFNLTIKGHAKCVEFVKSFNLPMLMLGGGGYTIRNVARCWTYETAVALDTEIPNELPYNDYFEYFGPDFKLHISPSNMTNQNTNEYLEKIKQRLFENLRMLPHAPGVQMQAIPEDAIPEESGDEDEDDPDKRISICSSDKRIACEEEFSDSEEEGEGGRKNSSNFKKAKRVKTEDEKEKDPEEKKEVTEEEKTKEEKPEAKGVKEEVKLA

PAC-320
450 to 1390 nM: HDAC4 | HDAC6 | HDAC5 | HDAC2 | HDAC1 | HDAC 3
